Reference: patent EP0551200A1, “Protein phosphatase inhibitors for use in therapy” (priority 1992, dated 1993)
Read-outs that look alike come from different tables or passages of the source.

How the values were obtained:
Egr-1 mRNA [1] = experiment: cells; type: cell-based, mouse
Procedure: (§1) 10 µg of RNA was applied to each lane and subjected to Northern blot analysis using an Egr-1 specific cDNA probe [1.6 kb Bgl II fragment (Sukhatme et al, Cell 53, 37-48, 1988)]. The same blots were rehybridized with actin or GADPH cDNA for normalizing the amount of RNA loaded. The blots were dried and autoradiographed. • (A). Time course of okadaic acid-induced Egr-1 and c-jun messages in primary human fibroblasts. Quiescent human fibroblasts were induced with 1 µM of okadaic acid for the time periods indicated. […] Time course of okadaic acid-induced Egr-1 message in Balb/c 3T3 cells. Quiescent Balb/c 3T3 cells were induced with okadaic acid (0.5µM) for the times indicated. • (C). Concentration dependent induction of Egr-1 message by okadaic acid in Balb/c 3T3 cells. Quiescent Balb/c 3T3 cells were induced with the indicated concentrations of okadaic acid for 1 h. As controls, different concentrations of DMSO were included. These corresponded to the amounts present in 0.25 µM okadaic acid (0.025% dimethyl sulphoxide (DMSO)) 0.5 µM okadaic acid (0.05% DMSO) and 1 µM okadaic acid (0.1%). • (D). Concentration dependent and time course induction of Egr-1 message by calyculin A. Quiescent Balb/c 3T3 cells were induced with different concentrations of calyculin A for 1 h. Northern analysis of this dose-dependent induction by calyculin A is shown on the left panel of the figure. […] Northern analysis of this time course induction by calyculin A is shown in the right panel of the figure. The same blot was rehybridized with pCMV-fos (Curran et al, Oncogene 2, 79-84, 1987) and pCMV-jun (Rauscher et al, 1988) shown in the middle panel. The blot was dried and autoradiographed.
(§2) Quiescent primary human fibroblasts were incubated with okadaic acid (OA) or TPA for 1 or 3 h. The concentrations of OA and TPA were 0.5 µM and 120 ng/ml, respectively. The concentration of 1-(5-isoquinolinylsulfonyl)-2-methylpiperazine dihydrochloride (H7) and N-(2-guanidinoethyl)-5-isoquinolinesulphonamide dihydrochloride (HA1004) used was 25 µM. The cells were pre-treated for 15 min with H7 or HA1004 before they were induced by OA or TPA for 1 or 3 h. Cells were harvested, RNA was isolated and subjected to Northern blot analysis. The blot was probed with Egr-1 or GADPH cDNA. • (B). As a positive control, primary human fibroblasts were treated with TPA (30 ng/ml) for 1 h (1st lane). The fibroblasts were also pre-treated with H7 (25 µM) or HA1004 (25 µM) for 15 min before treatment with TPA for 1 h (2nd and 3rd lanes respectively). […] The blot was probed with Egr-1 or actin cDNA. • (C). Quiescent Balb/c 3T3 cells were incubated with OA, TPA or dBt-cAMP for 1 h or pre-treated with H7 (25 µM) or HA1004 (25 µM) for 15 min and then incubated with each of the agonists for 1 h. Cells were harvested, RNA was isolated and subjected to Northern blot analysis. The concentration of each agonist used was as follows: lane a: 0.5 µM of OA, lane b: 100 ng/ml of TPA, lane c: 1 mM of dBt-cAMP, lane d: H7 plus OA (0.5 µM), lane e: H7 plus TPA (100 ng/ml), lane f: H7 plus dBt-cAMP (1 mM), lane g: HA1004 plus OA (0.5 µM), lane h: HA1004 plus TPA (100 ng.ml), lane i: HA1004 plus dBt-cAMP (1mM). The blot was probed with Egr-1 or GADPH cDNA.
Cell Cultures and Reagents. Human diploid foreskin fibroblasts were a gift from Dr J Vilcek (New York University, New York). The cells were grown in MEM supplemented with 10% fetal bovine serum (Hyclone, Logan, UT, US), Mouse Balb/c 3T3 cells were purchased from the American Type Culture Collection and grown in Dulbecco's MEM (DMEM) supplemented with 10% fetal bovine serum. Okadaic acid, calyculin A, H7, and HA1004 were purchased from Biomol Research Laboratories (Plymouth Meeting, PA, US). TPA, puromycin and dBt-cAMP were purchased from Sigma (St Louis, MO, US) 1 mM stock solutions of okadaic acid or calyculin A were solubilized in DMSO. [³²P]orthophosphate and other radioactive chemicals were purchased from Du Pont-New England Nuclear (Boston, MA). […]

c-fos and c-jun = experiment: Northern blot analysis of c-fos and c-jun in Balb/c 3T3 cells; type: cell-based, mouse; conditions: 15 nM time course
Procedure: 10 µg of RNA was applied to each lane and subjected to Northern blot analysis using an Egr-1 specific cDNA probe [1.6 kb Bgl II fragment (Sukhatme et al, Cell 53, 37-48, 1988)]. The same blots were rehybridized with actin or GADPH cDNA for normalizing the amount of RNA loaded. The blots were dried and autoradiographed. • (A). Time course of okadaic acid-induced Egr-1 and c-jun messages in primary human fibroblasts. Quiescent human fibroblasts were induced with 1 µM of okadaic acid for the time periods indicated. […] Time course of okadaic acid-induced Egr-1 message in Balb/c 3T3 cells. Quiescent Balb/c 3T3 cells were induced with okadaic acid (0.5µM) for the times indicated. • (C). Concentration dependent induction of Egr-1 message by okadaic acid in Balb/c 3T3 cells. Quiescent Balb/c 3T3 cells were induced with the indicated concentrations of okadaic acid for 1 h. As controls, different concentrations of DMSO were included. These corresponded to the amounts present in 0.25 µM okadaic acid (0.025% dimethyl sulphoxide (DMSO)) 0.5 µM okadaic acid (0.05% DMSO) and 1 µM okadaic acid (0.1%). • (D). […]
Cell Cultures and Reagents. […] The blots were autoradiographed and quantitated with the aid of the Visage 2000 Image System (BioImage Products, Ann Arbor, MI, US). […]

Egr-1 protein = type: cell-based; conditions: 2 h treatment, data not shown
Procedure: Quiescent human fibroblasts were stimulated with MEM containing 0.5 µM okadaic acid in the presence or absence of cycloheximide (10 µg/ml) for the times indicated in Fig. 11. […] Treatment of cells with cycloheximide enhanced the induction of Egr-1 mRNA by okadaic acid at 1.5 and 3 h (Fig. 11). Similarly puromycin, like cycloheximide, also "superinduces" the induction of the Egr-1 mRNA by okadaic acid (data not shown). […] However, in view that protein phosphatase 1 (PP1) and protein phosphatase 2A (PP2A) regulate enzymes associated with cellular protein synthesis (Cohen, Annu. Rev. Biochem. 58, 453-508, 1989) the effect of okadaic acid on protein synthesis in mouse and human fibroblasts was also measured. […] By then the Egr-1 mRNA message was already induced. A corollary to this is a comparison of the amount of ³⁵S-methionine labelled Egr-1 protein immunoprecipitated by R5232 antibodies from protein phosphatase inhibitor-treated and control cells. […] Thus, the induction of the Egr-1 gene by phosphatase inhibitors is unlikely to be mediated by their late inhibitory effects on cellular protein synthesis.

human fibroblasts = experiment: Early protein phosphorylation changes in 32P-labeled cells, two-dimensional gel electrophoresis with computerized densitometry; type: cell-based
Procedure: The cells were then subjected to analysis by high resolution two-dimensional gel electrophoresis combined with computerized imaging as previously described (Guy et al, J. Biol. Chem. 266, 14343-14352, 1991).
Radiolabeling of Cells and Cell Lysis - For labeling with [³²P]orthophosphate cells were plated onto 90 mm plastic tissue culture dishes and incubated for 3 days for the cells to become confluent. Immediately before labeling, the media was removed and the cells were washed twice with 5 ml of phosphate- and serum-free media (150 mM NaCl, 5 mM MgCl₂, 5 mM KCl, 1.6 mM CaCl₂, 0.5% glucose, 10 mM Tris, 0.1% bovine serum albumin, pH 7.4) before the addition of 1 mCi/ml of [³²P]orthophosphate in 3 ml of the same media to each plate. The plates were incubated at 37°C in a humidified CO₂ incubator for 2 h before the addition of the okadaic acid or other agonists at the concentrations and for the times indicated in the figures and table. The agonists were reconstituted in aqueous buffered solution or in dimethyl sulfoxide. […] At the completion of labeling the media was removed, and the cells were rapidly washed twice with 5 ml of ice-cold phosphate-buffered saline before being solubilised in 200 µl of cytosol extraction buffer (10mM Tris-HCl, 50 mM EDTA, 50 mM NaCl, 30 mM sodium pyrophosphate, 50 mM NaF, 100µM Na₃VO₄, 0.65% Nonidet P-40, 2 mM leupeptin, 2mM phenylmethylsulfonyl fluoride, pH 7.4). The lysate was collected and centrifuged for 5 min at 14,000 rpm. The pellet containing the nuclear fraction (including the cytoskeletal-membrane fractions) was separated from the cytosolic fraction. Both fractions were lyophilized.
Two-dimensional Gel Electrophoresis - The lyophilized fractions (each of approximately 12 µg) were subjected to isoelectric focusing for 18,000 V/h with pH 3-10 ampholytes using the Millipore Investigator two-dimensional electrophoresis system (Millipore). Following this, the first-dimension gel was extruded and equilibrated in SDS buffer for 2 min before being loaded onto the second dimension 12.5% SDS-polyacrylamide gel. The gel was fixed, dried and ³²P-labeled polypeptides were located by autoradiography by using intensifying screens at -80°C. For measurement of the pH profile, carbamylated protein standards (Pharmacia LKB Biotechnology Inc.) were co-run on duplicate gels and related to proteins of known pI on previously calibrated samples. Molecular weight marker proteins from Sigma were detected by Coomassie Blue staining and marked on the autoradiogram. ³²P-Labeled 27 hsp complex prepared from human fibroblasts heat shocked at 43°C for 30 min was also used as a marker.
Quantitative Determination of Protein Phosphorylation - The amount of protein phosphorylation on autoradiographs derived from cytosolic membrane or antibody-precipitated preparations containing equal amounts of protein were analyzed by computerized densitometry using a Visage 2000 Image analysis system (BioImage Products, Ann Arbor, MI, US).
The ³²P-labeled protein spots are resolved and detected by autoradiography of the high definition two-dimensional gel electrophoresis of cytosolic extracts prepared from ³²P-labeled human fibroblasts. The radioactive spots (each representing one or more phosphoproteins) are analyzed by computerized densitometry. Each spot is arbitrarily assigned a number. […]

Egr-1 mRNA [2] = experiment: Northern blot analysis of Egr-1 mRNA induction in quiescent primary human fibroblasts; type: cell-based
Procedure: Quiescent human fibroblasts were incubated with TNF (500 units/ml) (a) or OA (500 nM) (b) for 0, 30, 60 min after which total cellular RNA was extracted. Blots of RNA from these cells were hybridized to radiolabeled (10⁶ cpm/ml) Egr-1 cDNA probe. c, the blot in b was stripped and reprobed with c-jun cDNA. Note: Egr-1 mRNA probe was not completely stripped from the blot. The autoradiograph of the blot is presented. d, regularly maintained cells were incubated wither with no additions (control, 0 time) or with OA for 1, 3, 5, 7 h and Northern analysis was carried out with an IL-6 cDNA probe (ATCC, Rockville, MD, US).
as §1
Cells were incubated with either 0.5 µM of okadaic acid or 10 µg/ml of cycloheximide as well as with 0.5 µM of okadaic acid and 10 µg/ml of cycloheximide for 1.5, 3 or 6 h. Cells were harvested, RNA isolated and subjected to Northern blot analysis. The blot was probed with Egr-1 or actin cDNA.
as §2, with “The concentration of each agonist used was as follows: lane a: 0.5 µM of OA, lane b: 100 ng/ml of TPA, lane c: 1 mM of dBt-cAMP, lane d: H7 plus OA (0.5 µM), lane e: H7 plus TPA (100 ng/ml), lane f: H7 plus dBt-cAMP (1 mM), lane g: HA1004 plus OA (0.5 µM), lane h: HA1004 plus TPA (100 ng.ml), lane i: HA1004 plus dBt-cAMP (1mM). The blot was probed with Egr-1 or GADPH cDNA.” left out

COC[C@@H]([C@H](O)[C@H](O)C(=O)NCC[C@H](C)c1nc(/C=C/C[C@@H]2O[C@]3(C[C@@H](O)[C@@H]2C)O[C@H]([C@H](C[C@H](O)[C@H](C)[C@H](O)[C@H](C)/C=C(C)/C(C)=C/C=C/C(C)=C\C#N)OC)[C@H](OP(=O)(O)O)C3(C)C)co1)N(C)C [calyculin A]
concentration up to which induction of Egr-1 mRNA increased dose-dependently (Egr-1 mRNA [1]; 1 h): up to 25 nM | concentration inducing an equivalent fold increase in Egr-1 mRNA (Egr-1 mRNA [1]; 1 h, calyculin A compared with okadaic acid): 10 nM | induction of immediate-early genes c-fos and c-jun (in words) (c-fos and c-jun): also induced | amount of 35S-methionine labeled Egr-1 protein relative to control cells (Egr-1 protein): 4 to 5 fold

O-tetradecanoylphorbol 13-acetate [TPA]
pattern of early protein phosphorylation changes (in words) (human fibroblasts): quite different from that produced by okadaic acid or TNF

CC1CNCCN1S(=O)(=O)c1cccc2cnccc12.Cl.Cl (stereo not shown) [H7, 1-(5-isoquinolinylsulfonyl)-2-methylpiperazine dihydrochloride]
block of induction of Egr-1 message by okadaic acid or TPA (in words) (Egr-1 mRNA [2]; 25 µM, 15 min pre-treatment): effectively blocked | block of induction of Egr-1 message by okadaic acid or TPA (in words) (Egr-1 mRNA [1]; 25 µM, 15 min pre-treatment): effectively blocked

C[C@@H]1C[C@@H]([C@H](O)CC2CC(=O)NC(=O)C2)C(=O)[C@@H](C)C1 [cycloheximide]
effect on the induction of Egr-1 mRNA by okadaic acid (in words) (Egr-1 mRNA [2]): enhanced | induction of Egr-1 mRNA by the substance alone (in words) (Egr-1 mRNA [2]): induced Egr-1 mRNA

COc1ccc(C[C@H](N)C(=O)N[C@H]2[C@@H](O)[C@H](n3cnc4c(N(C)C)ncnc43)O[C@@H]2CO)cc1 [puromycin]
effect on the induction of Egr-1 mRNA by okadaic acid (in words) (Egr-1 mRNA [2]; 0.5 µM okadaic acid, protein synthesis inhibitor): superinduces
